Laboratory results published in patent publication US6310090A, “Process and product for enhancing immune response in companion animals using a combination of antioxidants” (priority 2000, dated 2001).

What was measured:
mouse splenocytes = details: cited from earlier work
[1] = tested on: chemical-induced carcinogenesis; details: mice; cited from earlier work
lymphocyte [2] = details: rats; cited from earlier work
blood lymphocytes = tested on: blood lymphocytes; set-up: species or system dog (Beagle); details: dog, in vivo
Description: (§1) Female Beagle dogs (18 to 19 months of age; 7 to 9 kg body weight) were fed a basal diet (The lams Co., Lewisburg, OH) which met or exceeded the requirement for all essential nutrients. Animals were housed indoors in light- (14 hr light; 10 hr dark) and temperature-controlled rooms. A test was conducted to study the uptake profile of β-carotene after a single oral dose of β-carotene.
(§2) Blood plasma was separated by centrifugation and β-carotene concentrations were analyzed using high performance liquid chromatography (HPLC) as follows. All procedures were conducted under dim light. Duplicate aliquots of plasma, each leukocyte homogenate, and each leukocyte subcellular fraction were extracted with a 1:1 mixture of diethyl ether and petroleum ether in the presence of BHT. The ether phase was removed and dried under a stream of nitrogen. The residue was reconstituted in mobile phase for the HPLC determination of β-carotene. Samples (50 μl) were injected onto a 5 μm spherical C-18 reverse-phase column (3.9×150 mm; Resolve) and eluted with a 47:47:6 (v/v/v) mixture of acetonitrile, methanol, and chloroform at a flow rate of 1.0 ml/min.
(§3) A third study was designed to study the uptake of β-carotene in dogs by blood lymphocytes. The dogs (n=8/treatment) were fed 0, 50 or 100 mg of β-carotene daily for 30 days. Blood was sampled from all dogs via the jugular vein on days 10, 20 and 30. Blood lymphocytes and neutrophils were separated by density gradient centrifugation. Cell numbers were enumerated. Lymphocytes and neutrophils were resuspended in PBS containing 3% sodium ascorbate as an antioxidant. An aliquot of the cell suspension was sonicated for 30 seconds to disrupt the cells. The leukocyte homogenates were extracted for HPLC analysis of β-carotene.
(§4) On day 30, a larger aliquot of blood was taken and leukocyte suspensions prepared as described above for subsequent subcellular fractionation. Cells were disrupted by sonication for 20 seconds in 5 volumes of 0.25 M sucrose. Sodium ascorbate was added as the antioxidant. The homogenate was centrifuged (600×g for 10 min at 4° C.) and the nuclear pellet separated from the supernatant. The postnuclear supernatant was centrifuged (17,300×g for 20 min at 4° C.) to separate the mitochondrial fraction. The postmitochondrial supernatant was centrifuged (102,000×g for 60 min at 4° C.) to separate the microsomal from the cytosolic fraction. Each subcellular fraction was analyzed for β-carotene content by HPLC.

[3] = assay type: in vivo, dog (Beagle)
Description: (§5) In a fourth study, female Beagles (4 to 5 mo old) were supplemented daily with 0, 25, 50 or 100 mg of β-carotene to study the role of dietary β-carotene in enhancing the cell-mediated and humoral immune systems of the dog. The following parameters were assessed in all the animals or in the peripheral blood lymphocytes: (1) delayed-type hypersensitivity (DTH) against PHA (nonspecific immunity) and vaccine (specific immunity), (2) lymphocyte proliferation, (3) lymphocyte populations and (4) immunoglobulins (Ig).

IgG = test: immunoglobulins, β-carotene feeding; assay type: in vivo, dog (Beagle); details: as early as 1 week after supplementation
Description: as §5

IgM = test: immunoglobulins, β-carotene feeding; assay type: in vivo, dog (Beagle); details: as early as 1 week after supplementation
Description: as §5

[4] = tested on: vaccine (specific immunity); test: delayed-type hypersensitivity (DTH) against vaccine, β-carotene feeding; assay type: in vivo, dog (Beagle); details: 20 or 50 mg of β-carotene
Description: (§6) The following parameters were assessed in all the animals or in the peripheral blood lymphocytes: (1) delayed-type hypersensitivity (DTH) against PHA (nonspecific immunity) and vaccine (specific immunity), (2) lymphocyte proliferation, (3) lymphocyte populations and (4) immunoglobulins (Ig).

IL-2 = IL-2 production, β-carotene feeding; assay type: cell-based, dog (Beagle)
[5] = plasma β-carotene on daily feeding for 7 consecutive days; set-up: species or system dog (Beagle); details: dog, in vivo
Description: as §1, §2
In a second study, the dogs (n=6/treatment) were fed daily at 0800 hr for 7 consecutive days with 0, 12.5, 25, 50 or 100 mg β-carotene. […] Plasma was isolated and analyzed for concentrations of β-carotene.

CD4+ cells = test: lymphocyte populations, β-carotene feeding; assay type: in vivo, dog (Beagle); details: 20 or 50 mg, week 8, compared to controls
Description: as §6

CD8 cells = test: lymphocyte populations, β-carotene feeding; assay type: in vivo, dog (Beagle); details: 20 mg, weeks 2 and 4
Description: as §6

[6] = tested on: PHA (nonspecific immunity); test: delayed-type hypersensitivity (DTH) against PHA, β-carotene feeding; assay type: in vivo, dog (Beagle); details: 50 mg of β-carotene
Description: as §5

immunoglobulins (Ig) = test: immunoglobulins / antibody levels in the blood, β-carotene feeding; assay type: in vivo, dog (Beagle)
Description: FIG. 1 is a graph of antibody concentration in dogs (mg/dl) versus mg/kg diet of beta-carotene; and
as §6

lymphocyte [7] = test: mitogen-induced lymphocyte blastogenesis, β-carotene feeding; assay type: cell-based, dog (Beagle)
Description: as §5

blood neutrophils = test: uptake of β-carotene by blood neutrophils and their subcellular fractions; assay type: in vivo, dog (Beagle); details: dog, in vivo
Description: as §1, §2, §3, §4

[8] = as above; assay type: in vivo, dog (Beagle); details: dog, blood neutrophils, po; 50 or 100 mg daily; read-out: time of maximal uptake by blood neutrophils
Description: as §1, §2, §3, §4

immune system = test: summary of the results from each of the studies (Table 1); assay type: in vivo, dog
[9] = uptake profile of plasma β-carotene after a single oral dose; set-up: species or system dog (Beagle); details: dog, in vivo
Description: as §1
To study the uptake of oral β-carotene in dogs given a single dose of β-carotene orally, dogs (n=6/treatment) were given once perorally 0, 50, 100 or 200 mg of β-carotene (10% cold water dissolvable; BASF Corp., Ludwigshafen, Germany). The appropriate dose of β-carotene was dissolved in 5 ml of water fed orally by using a feeding syringe. In order to establish appropriate sampling times, two dogs were used in a preliminary study. These dogs were fed once with 50 mg β-carotene and blood sampled at 0 (immediately prior to β-carotene feeding), 3, 6, 9, 12, 15, 18, 21 and 24 hr.
as §2

cancer = details: supplementation alone, compared with diets high in antioxidants; cited from earlier work
lymphocyte [10] = test: lymphocyte mitogenic response to ConA and PHA, vitamin E diets; assay type: cell-based, dog (Beagle); details: 8 weeks
From the text: Twenty young (mean age 2 years) and 20 old (mean age 9.2 years) Beagles were fed a standard commercial chicken/corn-based diet formulated to contain 27 IU/kg diet of vitamin E (NRC recommendation) (control diet) for 1 month prior to the commencement of the experiment in order to stabilize the dogs' vitamin E levels. Young and old dogs were then randomly assigned to the diets containing 27 IU/kg diet of vitamin E or 280 IU/kg diet of vitamin E for 8 weeks. Blood was collected before and after 8 weeks of dietary treatments for measurement of plasma vitamin E levels and assessment of lymphocyte mitogenic response to ConA (concanavalin A) and PHA (phytohemagglutinin).

[11] = daily β-carotene supplementation

Compound: CC1=C(/C=C/C(C)=C/C=C/C(C)=C/C=C/C=C(C)/C=C/C=C(C)/C=C/C2=C(C)C(=O)[C@@H](O)CC2(C)C)C(C)(C)C[C@H](O)C1=O [Astaxanthin, astaxanthin]
- ex vivo antibody response of mouse splenocytes to T-dependent antigens (mouse splenocytes): increase ex vivo antibody response

Compound: CC1=C(/C=C/C(C)=C/C=C/C(C)=C/C=C/C=C(C)/C=C/C=C(C)/C=C/C2=C(C)C(=O)CCC2(C)C)C(C)(C)CCC1=O [canthaxanthin]
- chemical-induced carcinogenesis [1]: prevent chemical-induced carcinogenesis in mice
- lymphocyte proliferation (lymphocyte [2]): increase lymphocyte proliferation in rats

Compound: CC1=C(/C=C/C(C)=C/C=C/C(C)=C/C=C/C=C(C)/C=C/C=C(C)/C=C/C2=C(C)CCCC2(C)C)C(C)(C)CCC1 [β-carotene]
- share of total β-carotene in lymphocytes, cytosol (blood lymphocytes): 52-62%
- share of total β-carotene in lymphocytes, microsomes (blood lymphocytes): 16-23%
- share of total β-carotene in lymphocytes, mitochondria (blood lymphocytes): 14-17%
- share of total β-carotene in lymphocytes, nuclei (blood lymphocytes): 6-8%
- β-carotene concentrations in lymphocytes, 50 versus 100 mg (blood lymphocytes): no significant treatment difference
- ex vivo antibody response of mouse splenocytes to T-dependent antigens (mouse splenocytes): increase ex vivo antibody response
- plasma retinol [3, 11]: did not influence
- plasma α-tocopherol [3, 11]: did not influence
- plasma β-carotene concentrations ([3]; dog, in vivo): increased plasma β-carotene concentrations in a dose-dependent manner
- concentration of IgG (IgG): increased significantly
- concentration of total IgG (IgG; total IgG): increased significantly
- concentration of IgM (IgM): increased significantly
- DTH response to the vaccine [4]: significantly higher DTH response
- IL-2 production (IL-2): did not influence
- plasma β-carotene after the last dose, higher than after the first dose [5]: 2.5-4 fold
- population of CD4+ cells (CD4+ cells): elevated population of CD4+ cells
- population of CD8 cells (CD8 cells): elevated population of CD8 cells
- DTH response to PHA challenge [6]: greatest response
- increases in Ig (immunoglobulins (Ig); 0 to 20 mg of β-carotene): dose dependent
- antibody response for both Ig (immunoglobulins (Ig); 20 mg of β-carotene): consistently had the greatest antibody response
- increase in antibody levels in the blood (immunoglobulins (Ig); FIG. 1, addition of β-carotene to the diet): 20%
- increases in Ig (immunoglobulins (Ig); highest level, 50 mg): did not produce a further increase
- mitogen-induced lymphocyte blastogenesis (lymphocyte [7]): did not influence
- dose effect on uptake by blood neutrophils (blood neutrophils): No significant dose effect was observed
- β-carotene in the cytosolic fraction of blood neutrophils (blood neutrophils): 61-68
- β-carotene in the nuclei of blood neutrophils (blood neutrophils): not detected
- Tmax [8]: ≤ 240 h
- Increase antibody levels in the blood (immune system; Table 1): .check mark.
- Optimize types of cells present in the blood (immune system; Table 1): .check mark.
- Optimize vaccine recognition by the dog (immune system; Table 1): .check mark.
- concentration of β-carotene in plasma of dogs, lower than in cats [9]: 10-16 fold
- peak concentrations of blood β-carotene, dogs versus cats ([9]; po): occurred earlier in dogs than in cats
- Tmax ([9]; po, preliminary study, two dogs, 50 mg once orally, plasma, read-out: time of peak concentrations of β-carotene): 3 to 6 h
- magnitude of protection (cancer): do not provide the same magnitude of protection

Compound: vitamin E
- Optimize immune cell activity (T-cells) (immune system; Table 1, Vitamin E column): .check mark.
- ConA and PHA-stimulated proliferation (lymphocyte [10]; dogs supplemented with 280 IU/kg diet): No such decrease was observed
- mitogen-stimulated lymphocyte proliferation (lymphocyte [10]; old dogs, 27 or 280 IU/kg diet): did not show a significant change
- ConA and PHA-stimulated proliferation (lymphocyte [10]; young dogs, 27 IU/kg diet): significant decrease
- magnitude of protection (cancer): do not provide the same magnitude of protection
